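48-hour exposure; five concentrations; linearly interpolated endpoints. The concentration for 50% growth inhibition is given as GI50.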 Active and inactive are the calls of the source. No stated cut-off is given here; in the data, active = GI50 up to about 1.1 µM and inactive = higher.
Experiments:
Assay in all cases: inhibition of tumour cell growth, NCI panel, 48 h
U-251 = test system: U-251
UACC-62 = test system: UACC-62
HT-29 = test system: HT-29
MDA-N = test system: MDA-N
SF-295 = test system: SF-295
OVCAR-8 = test system: OVCAR-8
786-0 = test system: 786-0
HOP-92 = test system: HOP-92
UACC-257 = test system: UACC-257
HL-60 = test system: HL-60
M14 = test system: M14
NCI-H460 = test system: NCI-H460
T47D = test system: T47D
COLO 205 = test system: COLO 205
MDA-MB-231 = test system: MDA-MB-231
SK-MEL-28 = test system: SK-MEL-28
MDA-MB-435 = test system: MDA-MB-435
HCT-15 = test system: HCT-15
SR = test system: SR
BT-549 = test system: BT-549

Compound | GI50 (U-251) | GI50 (UACC-62) | GI50 (HT-29) | GI50 (MDA-N) | GI50 (SF-295) | GI50 (OVCAR-8) | GI50 (786-0) | GI50 (HOP-92) | GI50 (UACC-257) | GI50 (HL-60) | GI50 (M14) | GI50 (NCI-H460) | GI50 (T47D) | GI50 (COLO 205) | GI50 (MDA-MB-231) | GI50 (SK-MEL-28) | GI50 (MDA-MB-435) | GI50 (HCT-15) | GI50 (SR) | GI50 (BT-549)
O=C(O)c1cnc2cc(OCc3ccccc3)ccc2c1O | 18.6 µM (inactive) | 16.8 µM (inactive) | 19.2 µM (inactive) | 17 µM (inactive) | 19.3 µM (inactive) | 19 µM (inactive) | 18.5 µM (inactive) | 19.4 µM (inactive) | 24 µM (inactive) | 0.256 µM (active) | 17 µM (inactive) | 19.4 µM (inactive) | 17.8 µM (inactive) | 18.2 µM (inactive) | 20.6 µM (inactive) | 16 µM (inactive) | 16.2 µM (inactive) | 17.8 µM | 23 µM (inactive) | 18.4 µM (inactive)
CC1=NN(C(=O)CC(=O)Nc2ccccc2Cl)C(=O)C1/N=N\c1ccc(S(=O)(=O)c2ccc(/N=N/C3C(=O)N(C(=O)CC(=O)Nc4ccccc4Cl)N=C3C)cc2)cc1 (stereo not given) | > 100 µM (inactive) | > 100 µM (inactive) | > 100 µM (inactive) | > 100 µM (inactive) | > 100 µM (inactive) | > 100 µM (inactive) | > 100 µM (inactive) | > 100 µM (inactive) | > 100 µM (inactive) | > 100 µM (inactive) | > 100 µM (inactive) | > 100 µM (inactive) | > 100 µM (inactive) | > 100 µM (inactive) | 30.5 µM (inactive) | > 100 µM (inactive) | > 100 µM (inactive) | > 100 µM | > 100 µM (inactive) | > 100 µM (inactive)
C[C@@H]1CCC([C@@H](C)[C@H]2CC[C@H]3[C@@H]4CC[C@H]5C[C@@H](O)CC[C@]5(C)[C@H]4CC[C@]23C)=NC1 | 8.63 µM (inactive) | 15.9 µM (inactive) | 2.45 µM (inactive) | 9.53 µM (inactive) | 4.71 µM (inactive) | 8.11 µM (inactive) | 8.02 µM (inactive) | > 41.9 µM (inactive) | 25.3 µM (inactive) | 1.36 µM (inactive) | 4.73 µM (inactive) | 7.62 µM (inactive) | 12.7 µM (inactive) | 8.15 µM (inactive) | 30 µM (inactive) | 20.1 µM (inactive) | 20.7 µM (inactive) | 2.76 µM | 12 µM (inactive) | 25.6 µM (inactive)
Cc1c(C#N)c2nnn(-c3ccc(Cl)cc3)c(=O)n2c1-c1ccccc1 | 0.0815 µM (active) | 0.149 µM (active) | 0.0553 µM (active) | 0.0173 µM (active) | 0.0531 µM (active) | 0.163 µM (active) | 0.12 µM (active) | 0.474 µM (active) | 3.15 µM (inactive) | 0.0752 µM (active) | 0.0608 µM (active) | 0.0991 µM (active) | 6.58 µM (inactive) | 0.0357 µM (active) | 0.102 µM (active) | 10.7 µM (inactive) | < 0.0188 µM (active) | 0.0628 µM | < 0.0212 µM (active) | 0.37 µM (active)
N#CCc1nc(Cc2ccccc2)n[nH]1 | > 100 µM (inactive) | > 100 µM (inactive) | > 100 µM (inactive) | > 100 µM (inactive) | > 100 µM (inactive) | > 100 µM (inactive) | > 100 µM (inactive) | > 100 µM (inactive) | > 100 µM (inactive) | > 100 µM (inactive) | > 100 µM (inactive) | > 100 µM (inactive) | > 100 µM (inactive) | > 100 µM (inactive) | > 100 µM (inactive) | > 100 µM (inactive) | > 100 µM (inactive) | > 100 µM | > 100 µM (inactive) | > 100 µM (inactive)
COc1ccc(/C(CC2OC(=O)c3ccccc32)=N\NC(=O)C[N+](C)(C)C)cc1 (stereo not given) | 17.2 µM (inactive) | 15.4 µM (inactive) | 19.2 µM (inactive) | 38.2 µM (inactive) | 47.5 µM (inactive) | 19.5 µM (inactive) | 23.6 µM (inactive) | 23.1 µM (inactive) | 31.3 µM (inactive) | 33.4 µM (inactive) | 38 µM (inactive) | 24.6 µM (inactive) | 25.8 µM (inactive) | 27.5 µM (inactive) | 57.3 µM (inactive) | 19.7 µM (inactive) | 24.3 µM (inactive) | 19.2 µM | 18.2 µM (inactive) | 21.5 µM (inactive)
CC(=O)OCC1OC(N2C(C)=C(C(C)=O)C(c3ccc(Cl)cc3)C(C#N)=C2S)C(OC(C)=O)C(OC(C)=O)C1OC(C)=O (stereo not given) | 66.5 µM (inactive) | 19.9 µM (inactive) | 42.7 µM (inactive) | 42.5 µM (inactive) | 66.2 µM (inactive) | 52.5 µM (inactive) | 35.6 µM (inactive) | 33.6 µM (inactive) | 48.8 µM (inactive) | 37.3 µM (inactive) | 56.8 µM (inactive) | 45.1 µM (inactive) | 24.5 µM (inactive) | 19.4 µM (inactive) | 87.5 µM (inactive) | 47.1 µM (inactive) | 36.8 µM (inactive) | 41.3 µM | 28.2 µM (inactive) | 62.4 µM (inactive)
CC(Oc1ccccc1)C(=O)NNC(=O)OC(C)(C)C (stereo not given) | > 100 µM (inactive) | > 100 µM (inactive) | > 100 µM (inactive) | > 100 µM (inactive) | > 100 µM (inactive) | > 100 µM (inactive) | > 100 µM (inactive) | > 100 µM (inactive) | > 100 µM (inactive) | > 100 µM (inactive) | > 100 µM (inactive) | > 100 µM (inactive) | > 100 µM (inactive) | > 100 µM (inactive) | > 100 µM (inactive) | > 100 µM (inactive) | > 100 µM (inactive) | > 100 µM | > 100 µM (inactive) | > 100 µM (inactive)
CC(C)c1c(O)ccc2c1CCC1C(C)(C)CCCC21C (stereo not given) | 18 µM (inactive) | 15.2 µM (inactive) | 16.9 µM (inactive) | 17.1 µM (inactive) | 17.9 µM (inactive) | 17.8 µM (inactive) | 18.1 µM (inactive) | 18.6 µM (inactive) | 17.7 µM (inactive) | 29 µM (inactive) | 16.2 µM (inactive) | 17.4 µM (inactive) | 0.0173 µM (active) | 17.8 µM (inactive) | 19 µM (inactive) | 21.3 µM (inactive) | 18.6 µM (inactive) | 18.9 µM | 19.5 µM (inactive) | 18.5 µM (inactive)
CC1CN1C(=O)NCCCCCCNC(=O)N1CC1C (stereo not given) | 65.3 µM (inactive) | 31.8 µM (inactive) | > 100 µM (inactive) | > 100 µM (inactive) | 54.3 µM (inactive) | 69 µM (inactive) | 51.6 µM (inactive) | > 93.5 µM (inactive) | > 100 µM (inactive) | 11.9 µM (inactive) | 68.2 µM (inactive) | 2.61 µM (inactive) | > 73.1 µM (inactive) | > 100 µM (inactive) | > 100 µM (inactive) | > 100 µM (inactive) | > 100 µM (inactive) | > 100 µM | 3.11 µM (inactive) | > 100 µM (inactive)
CCN(C(=O)N[C@@H](C)C(=O)N[C@@H](Cc1ccccc1)C(=O)OC)c1ccccc1 | > 100 µM (inactive) | 31.6 µM (inactive) | > 100 µM (inactive) | > 100 µM (inactive) | 79.6 µM (inactive) | 51.3 µM (inactive) | 39 µM (inactive) | 19.4 µM (inactive) | 49.1 µM (inactive) | 28.4 µM (inactive) | 34.4 µM (inactive) | 17.5 µM (inactive) | 56.8 µM (inactive) | 31.5 µM (inactive) | > 100 µM (inactive) | 33.2 µM (inactive) | > 100 µM (inactive) | 70.8 µM | 26 µM (inactive) | > 100 µM (inactive)
CC(C)OP(=O)(CCCCCCCCC/C=C/c1ccc2c(c1)OCCOCCOCCOCCO2)OC(C)C | 2.75 µM (inactive) | 3.79 µM (inactive) | 3.05 µM (inactive) | 3.4 µM (inactive) | 3.08 µM (inactive) | 3.15 µM (inactive) | 3.78 µM (inactive) | 2.2 µM (inactive) | 2.88 µM (inactive) | 7.67 µM (inactive) | 3.52 µM (inactive) | 2.61 µM (inactive) | 2.79 µM (inactive) | 1.99 µM (inactive) | 2.85 µM (inactive) | 6.61 µM (inactive) | 3.87 µM (inactive) | 2.46 µM | 4.22 µM (inactive) | 3.03 µM (inactive)
CN(C)CCNc1ccc(CO)c2sc3ccc(O)cc3c(=O)c12 | 0.783 µM (active) | 1.34 µM (inactive) | 2.3 µM (inactive) | 1.45 µM (inactive) | 1 µM (active) | 1.97 µM (inactive) | 1.13 µM (inactive) | 0.832 µM (active) | 5.24 µM (inactive) | 0.258 µM (active) | 3.01 µM (inactive) | 0.0259 µM (active) | 1.91 µM (inactive) | 4.3 µM (inactive) | 1.85 µM (inactive) | 7.8 µM (inactive) | 1.56 µM (inactive) | 2.31 µM | < 0.0157 µM (active) | 2.62 µM (inactive)
CN(C)CCNc1ccc2c(=O)n(CCN(C)C)c(=O)n3c4ccccc4c(=O)c1c23 | 0.0402 µM (active) | 0.0614 µM (active) | 0.0502 µM (active) | 0.133 µM (active) | < 0.0243 µM (active) | 0.0711 µM (active) | < 0.0198 µM (active) | 0.0516 µM (active) | 0.34 µM (active) | < 0.01 µM (active) | 0.0836 µM (active) | < 0.0113 µM (active) | 0.133 µM (active) | 0.17 µM (active) | 0.114 µM (active) | 0.116 µM (active) | 0.145 µM (active) | 0.0815 µM | < 0.01 µM (active) | 0.238 µM (active)
